Reference: ChEMBL document CHEMBL4138123, “Design, synthesis and biological evaluation of novel pyrazolochalcones as potential modulators of PI3K/Akt/mTOR pathway and inducers of apoptosis in breast cancer cells” (Eur J Med Chem, 2017)

Assays:
Format in all cases: functional
[1] = test system: MDA-MB-435; experiment: Cytotoxicity against human MDA-MB-435 cells assessed as cell growth at 10 uM after 48 hrs by sulforhodamine B assay relative to control; conditions: MDA-MB-435, 48 h, read-out: Activity
[2] = test system: PC-3; experiment: Cytotoxicity against human PC3 cells assessed as growth inhibition after 48 hrs by sulforhodamine B assay; conditions: PC-3, 48 h
[3] = test system: NCI-H226; experiment: Cytotoxicity against human NCI-H226 cells assessed as cell growth at 0.01 uM after 48 hrs by sulforhodamine B assay relative to control; conditions: NCI-H226, 48 h, read-out: Activity
[4] = test system: OVCAR-3; experiment: Cytotoxicity against human OVCAR3 cells assessed as cell growth at 0.1 uM after 48 hrs by sulforhodamine B assay relative to control; conditions: OVCAR-3, 48 h, read-out: Activity
[5] = test system: SW-620; experiment: Cytotoxicity against human SW620 cells assessed as cell growth at 100 uM after 48 hrs by sulforhodamine B assay relative to control; conditions: SW-620, 48 h, read-out: Activity
[6] = test system: MCF7; experiment: Cytotoxicity against human MCF7 cells assessed as cell growth at 0.1 uM after 48 hrs by sulforhodamine B assay relative to control; conditions: MCF7, 48 h, read-out: Activity
[7] = test system: OVCAR-8; experiment: Cytotoxicity against human OVCAR8 cells assessed as cell growth at 0.01 uM after 48 hrs by sulforhodamine B assay relative to control; conditions: OVCAR-8, 48 h, read-out: Activity
[8] = test system: HL-60(TB); experiment: Cytotoxicity against human HL-60(TB) cells assessed as cell growth at 0.01 uM after 48 hrs by sulforhodamine B assay relative to control; conditions: HL-60, 48 h, read-out: Activity
[9] = test system: KM12; experiment: Cytotoxicity against human KM12 cells assessed as cell growth at 1 uM after 48 hrs by sulforhodamine B assay relative to control; conditions: KM12, 48 h, read-out: Activity
[10] = test system: MDA-MB-435; experiment: Cytotoxicity against human MDA-MB-435 cells assessed as cell growth at 100 uM after 48 hrs by sulforhodamine B assay relative to control; conditions: MDA-MB-435, 48 h, read-out: Activity
[11] = test system: ACHN; experiment: Cytotoxicity against human ACHN cells assessed as cell growth at 0.1 uM after 48 hrs by sulforhodamine B assay relative to control; conditions: read-out: Activity
[12] = test system: OVCAR-8; experiment: Cytotoxicity against human OVCAR8 cells assessed as cell growth at 1 uM after 48 hrs by sulforhodamine B assay relative to control; conditions: OVCAR-8, 48 h, read-out: Activity
[13] = test system: OVCAR-5; experiment: Cytotoxicity against human OVCAR5 cells assessed as growth inhibition after 48 hrs by sulforhodamine B assay; conditions: OVCAR-5, 48 h
[14] = test system: Hs-578T; experiment: Cytotoxicity against human Hs 578T cells assessed as cell growth at 1 uM after 48 hrs by sulforhodamine B assay relative to control; conditions: read-out: Activity
[15] = test system: SR; experiment: Cytotoxicity against human SR cells assessed as cell growth at 100 uM after 48 hrs by sulforhodamine B assay relative to control; conditions: read-out: Activity
[16] = test system: NCI/ADR-RES; experiment: Cytotoxicity against human NCI/ADR-RES cells assessed as cell growth at 1 uM after 48 hrs by sulforhodamine B assay relative to control; conditions: read-out: Activity
[17] = test system: IGROV-1; experiment: Cytotoxicity against human IGROV1 cells assessed as growth inhibition after 48 hrs by sulforhodamine B assay; conditions: IGROV-1, 48 h
[18] = test system: CCRF-CEM; experiment: Cytotoxicity against human CCRF-CEM cells assessed as cell growth at 0.1 uM after 48 hrs by sulforhodamine B assay relative to control; conditions: read-out: Activity
[19] = test system: SR; experiment: Cytotoxicity against human SR cells assessed as cell growth at 1 uM after 48 hrs by sulforhodamine B assay relative to control; conditions: read-out: Activity
[20] = test system: NCI/ADR-RES; experiment: Cytotoxicity against human NCI/ADR-RES cells assessed as growth inhibition after 48 hrs by sulforhodamine B assay
[21] = test system: HOP-62; experiment: Cytotoxicity against human HOP62 cells assessed as cell growth at 10 uM after 48 hrs by sulforhodamine B assay relative to control; conditions: HOP-62, 48 h, read-out: Activity
[22] = test system: MCF7; experiment: Cytotoxicity against human MCF7 cells assessed as cell growth at 0.01 uM after 48 hrs by sulforhodamine B assay relative to control; conditions: MCF7, 48 h, read-out: Activity
[23] = test system: K562; experiment: Cytotoxicity against human K562 cells assessed as growth inhibition after 48 hrs by sulforhodamine B assay; conditions: K562, 48 h
[24] = test system: SK-OV-3; experiment: Cytotoxicity against human SKOV3 cells assessed as growth inhibition after 48 hrs by sulforhodamine B assay; conditions: SK-OV-3, 48 h
[25] = test system: COLO 205; experiment: Cytotoxicity against human COLO205 cells assessed as growth inhibition after 48 hrs by sulforhodamine B assay; conditions: COLO 205, 48 h
[26] = test system: KM12; experiment: Cytotoxicity against human KM12 cells assessed as cell growth at 0.1 uM after 48 hrs by sulforhodamine B assay relative to control; conditions: KM12, 48 h, read-out: Activity
[27] = test system: Malme-3M; experiment: Cytotoxicity against human MALME-3M cells assessed as cell growth at 0.1 uM after 48 hrs by sulforhodamine B assay relative to control; conditions: read-out: Activity
[28] = test system: IGROV-1; experiment: Cytotoxicity against human IGROV1 cells assessed as cell growth at 10 uM after 48 hrs by sulforhodamine B assay relative to control; conditions: IGROV-1, 48 h, read-out: Activity
[29] = test system: MDA-MB-435; experiment: Cytotoxicity against human MDA-MB-435 cells assessed as growth inhibition after 48 hrs by sulforhodamine B assay; conditions: MDA-MB-435, 48 h
[30] = test system: HOP-62; experiment: Cytotoxicity against human HOP62 cells assessed as cell growth at 0.1 uM after 48 hrs by sulforhodamine B assay relative to control; conditions: HOP-62, 48 h, read-out: Activity
[31] = test system: SF-539; experiment: Cytotoxicity against human SF539 cells assessed as cell growth at 1 uM after 48 hrs by sulforhodamine B assay relative to control; conditions: SF-539, 48 h, read-out: Activity
[32] = test system: T47D; experiment: Cytotoxicity against human T47D cells assessed as cell growth at 1 uM after 48 hrs by sulforhodamine B assay relative to control; conditions: read-out: Activity
[33] = test system: MOLT-4; experiment: Cytotoxicity against human MOLT4 cells assessed as cell growth at 10 uM after 48 hrs by sulforhodamine B assay relative to control; conditions: MOLT-4, 48 h, read-out: Activity
[34] = test system: SW-620; experiment: Cytotoxicity against human SW620 cells assessed as cell growth at 0.01 uM after 48 hrs by sulforhodamine B assay relative to control; conditions: SW-620, 48 h, read-out: Activity
[35] = test system: A498; experiment: Cytotoxicity against human A498 cells assessed as growth inhibition after 48 hrs by sulforhodamine B assay; conditions: A498, 48 h
[36] = test system: NCI-H460; experiment: Cytotoxicity against human NCI-H460 cells assessed as cell growth at 10 uM after 48 hrs by sulforhodamine B assay relative to control; conditions: NCI-H460, 48 h, read-out: Activity
[37] = test system: SN12C; experiment: Cytotoxicity against human SN12C cells assessed as cell growth at 1 uM after 48 hrs by sulforhodamine B assay relative to control; conditions: read-out: Activity

SMILES: COc1cc(C(=O)/C=C/c2cc(-c3ccc4c(c3)OCO4)n[nH]2)cc(OC)c1OC
- growth at 10 µM [1]: -29%
- GI50 [2]: 1.51 µM
- LC50 [2]: 12.4 µM
- TGI [2]: 4.02 µM
- growth at 0.01 µM [3]: 97%
- growth at 0.1 µM [4]: 100%
- growth at 100 µM [5]: -65%
- growth at 0.1 µM [6]: 94%
- growth at 0.01 µM [7]: 98%
- growth at 0.01 µM [8]: 99%
- growth at 1 µM [9]: 93%
- growth at 100 µM [10]: -88%
- growth at 0.1 µM [11]: 103%
- growth at 1 µM [12]: 93%
- GI50 [13]: 2.63 µM
- LC50 [13]: 76.8 µM
- TGI [13]: 9.6 µM
- growth at 1 µM [14]: 90%
- growth at 100 µM [15]: -17%
- growth at 1 µM [16]: 94%
- GI50 [17]: 1.99 µM
- LC50 [17]: 23.4 µM
- TGI [17]: 5.72 µM
- growth at 0.1 µM [18]: 98%
- growth at 1 µM [19]: 56%
- GI50 [20]: 2.99 µM
- LC50 [20]: > 100 µM
- TGI [20]: 12.3 µM
- growth at 10 µM [21]: -24%
- growth at 0.01 µM [22]: 89%
- GI50 [23]: 2.17 µM
- LC50 (concentration killing 50% of cells) [23]: > 100 µM
- TGI [23]: > 100 µM
- GI50 [24]: 4.44 µM
- LC50 [24]: 38.8 µM
- TGI [24]: 14.6 µM
- GI50 [25]: 2.08 µM
- LC50 [25]: 12.6 µM
- TGI [25]: 4.66 µM
- growth at 0.1 µM [26]: 93%
- growth at 0.1 µM [27]: 83%
- growth at 10 µM [28]: -26%
- GI50 [29]: 2.28 µM
- LC50 [29]: 22.5 µM
- TGI [29]: 5.8 µM
- growth at 0.1 µM [30]: 95%
- growth at 1 µM [31]: 68%
- growth at 1 µM [32]: 68%
- growth at 10 µM [33]: -8%
- growth at 0.01 µM [34]: 98%
- GI50 [35]: 1.75 µM
- LC50 [35]: 15.3 µM
- TGI [35]: 4.65 µM
- growth at 10 µM [36]: -67%
- growth at 1 µM [37]: 90%
